This note sets out measurements from patent US20070249620A1, “Urea Derivative” (priority 2004, published 2007).

One series addresses T1, mouse DGAT1 (Mus musculus, UniProt Q9Z2A7).
T1 construct: made in house; host or cells: insect cells (High Five, Sf9, Sf21, etc.), baculovirus expression system (Invitrogen)
T1 sequence (Q9Z2A7 1-498): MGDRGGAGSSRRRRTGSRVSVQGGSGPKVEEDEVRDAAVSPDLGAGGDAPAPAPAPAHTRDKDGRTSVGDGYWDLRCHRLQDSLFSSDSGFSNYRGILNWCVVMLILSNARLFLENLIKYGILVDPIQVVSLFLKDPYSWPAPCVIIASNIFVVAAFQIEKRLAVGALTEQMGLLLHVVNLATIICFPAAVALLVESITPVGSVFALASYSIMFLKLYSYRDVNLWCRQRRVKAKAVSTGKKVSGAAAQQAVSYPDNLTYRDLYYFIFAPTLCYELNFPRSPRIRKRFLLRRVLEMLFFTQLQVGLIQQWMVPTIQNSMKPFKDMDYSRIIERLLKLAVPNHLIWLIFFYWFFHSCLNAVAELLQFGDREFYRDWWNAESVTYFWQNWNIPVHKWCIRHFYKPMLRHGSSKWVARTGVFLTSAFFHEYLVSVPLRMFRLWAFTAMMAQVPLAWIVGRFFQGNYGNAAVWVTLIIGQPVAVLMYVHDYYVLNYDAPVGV
The series can be described thus: DGAT1 inhibitory effect test (microsome fraction, [14C]-oleoyl-CoA, triglyceride radioactivity by TLC). It counts as biochemical. Conditions: 0.5 h; concentration of the test compound 0.1 μg/ml; mouse DGAT1 microsomes, 23° C., 30 minutes; read-out: Inhibitory ratio. The procedure, abridged:
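Baculovirus-expressed mouse DGAT1 insect-cell microsomes (10 μg) were incubated 30 min at 23 °C, pH 8.0, with 0.5 mM 1,2-dioleoyl-sn-glycerol, 30 μM [14C]-oleoyl-CoA and 0.5% Triton X-100. [14C]-triglyceride was quantified after heptane extraction and TLC. Percent inhibition was taken against vehicle control, with 0-min background subtracted.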

The compound `COc1ccc(C)cc1NC(=O)Nc1ccc(N2CCN(C(=O)Nc3ccccc3C(F)(F)F)CC2)nc1` [Example 137, 4-{5-[3-(2-methoxy-5-methyl-phenyl)-ureido]-pyridin-2-yl}-piperazine-1-carboxylic acid (2-trifluoromethyl-phenyl)-amide] showed a melting point of 213 to 214 °C. Moreover, at mouse DGAT1, the inhibition at 0.1 µg/mL is not below 50%.
`COc1ccc(C)cc1NC(=O)Nc1ccc(N2CCN(C(=O)Nc3c(C)cccc3C)CC2)nc1` [Example 138, 4-{5-[3-(2-methoxy-5-methyl-phenyl)-ureido]-pyridin-2-yl}-piperazine-1-carboxylic acid (2,6-dimethyl-phenyl)-amide] registered a melting point of 221 to 223 °C. Moreover, on mouse DGAT1, the inhibition at 0.1 µg/mL is not below 50%.
With `COc1ccc(C)cc1NC(=O)Nc1ccc(N2CCN(C(=O)Nc3c(F)cccc3C(F)(F)F)CC2)nc1` [Example 139, 4-{5-[3-(2-methoxy-5-methyl-phenyl)-ureido]-pyridin-2-yl}-piperazine-1-carboxylic acid (2-fluoro-6-trifluoromethyl-phenyl)-amide], the melting point lay in the range of 221 to 222 °C. Also, on mouse DGAT1, the inhibition at 0.1 µg/mL was not below 50%.
`COc1ccc(C)cc1NC(=O)Nc1ccc(N2CCN(C(=O)Nc3c(Cl)cccc3Cl)CC2)nc1` [Example 140, 4-{5-[3-(2-methoxy-5-methyl-phenyl)-ureido]-pyridin-2-yl}-piperazine-1-carboxylic acid (2,6-dichloro-phenyl)-amide] showed a melting point of 222 to 224 °C. In addition, the inhibition at 0.1 µg/mL at mouse DGAT1 was not below 50%.
`CCOc1ccccc1NC(=O)Nc1ccc(N2CCN(C(=O)Nc3c(C)cccc3Cl)CC2)nc1` [Example 141, 4-{5-[3-(2-ethoxy-phenyl)-ureido]-pyridin-2-yl}-piperazine-1-carboxylic acid (2-chloro-6-methyl-phenyl)-amide]: the melting point lay in the range of 185 to 186 °C. In addition, the inhibition at 0.1 µg/mL on mouse DGAT1 is not below 50%.
The compound `CCOc1ccccc1NC(=O)Nc1ccc(N2CCN(C(=O)Nc3c(C)cccc3C)CC2)nc1` [Example 142, 4-{5-[3-(2-ethoxy-phenyl)-ureido]-pyridin-2-yl}-piperazine-1-carboxylic acid (2,6-dimethyl-phenyl)-amide] yielded a melting point of 188 to 190 °C. Also, the inhibition at 0.1 µg/mL on mouse DGAT1 was not below 50%.
As to `CCOc1ccccc1NC(=O)Nc1ccc(N2CCN(C(=O)Nc3c(F)cccc3C(F)(F)F)CC2)nc1` [Example 143, 4-{5-[3-(2-ethoxy-phenyl)-ureido]-pyridin-2-yl}-piperazine-1-carboxylic acid (2-fluoro-6-trifluoromethyl-phenyl)-amide], the melting point was in the range of 177 to 179 °C. The inhibition at 0.1 µg/mL at mouse DGAT1 is not below 50%.
Compound `CCOc1ccccc1NC(=O)Nc1ccc(N2CCN(C(=O)Nc3c(Cl)cccc3Cl)CC2)nc1` [Example 144, 4-{5-[3-(2-ethoxy-phenyl)-ureido]-pyridin-2-yl}-piperazine-1-carboxylic acid (2,6-dichloro-phenyl)-amide] gave a melting point of 170 to 172 °C. Further, the inhibition at 0.1 µg/mL at mouse DGAT1 was not below 50%.
As for `CCOc1ccccc1NC(=O)Nc1ccc(N2CCN(C(=O)Nc3ccc(OC)cc3C)CC2)nc1` [Example 145, 4-{5-[3-(2-ethoxy-phenyl)-ureido]-pyridin-2-yl}-piperazine-1-carboxylic acid (4-methoxy-2-methyl-phenyl)-amide], the melting point fell in the range of 166 to 168 °C. Also, the inhibition at 0.1 µg/mL on mouse DGAT1 is not below 50%.
`CCOc1ccccc1NC(=O)Nc1ccc(N2CCN(C(=O)Nc3ccc(C)cc3Cl)CC2)nc1` [Example 146, 4-{5-[3-(2-ethoxy-phenyl)-ureido]-pyridin-2-yl}-piperazine-1-carboxylic acid (2-chloro-4-methyl-phenyl)-amide] gave a melting point of 136 to 137 °C. Further, the inhibition at 0.1 µg/mL on mouse DGAT1 was not below 50%.

One may read the melting point as the temperature, or range, at which the solid turns liquid.
